Results taken from the supplement of paper PMC13380429.

Legend:
U2OS [1] = assay: drug sensitivity score (DSS) for viability; higher = more toxic; extreme values may be limits of the assay; conditions: 72 h
Calu-3 [2] = assay: as above; conditions: 72 h
Vero E6 [3] = assay: as above; conditions: 72 h
HepG2 [4] = assay: as above; conditions: 72 h
[5] = tested on: A549-ACE2 infected with SARS-CoV-2; assay: morphology score (similarity to uninfected cells); higher = more like uninfected cells; conditions: 24 h
A549-ACE2 [6] = assay: phospholipidosis EC50; higher = less potent phospholipidosis inducer
U2OS [7] = assay: relative viability EC50 (midpoint between 100% and the lowest measured viability); higher = less toxic; conditions: 72 h
Calu-3 [8] = assay: as above; conditions: 72 h
Caco-2 [9] = assay: as above; conditions: 72 h
HepG2 [10] = assay: as above; conditions: 72 h
U2OS [11] = assay: cell viability relative to DMSO; higher = less toxic; conditions: 72 h
Calu-3 [12] = assay: as above; conditions: 72 h
Caco-2 [13] = assay: as above; conditions: 72 h
Vero E6 [14] = assay: as above; conditions: 72 h
HepG2 [15] = assay: as above; conditions: 72 h
[16] = tested on: A549-ACE2 infected with SARS-CoV-2; assay: cell count relative to DMSO; higher = less toxic; conditions: 24 h
Caco-2 [17] = assay: drug sensitivity score (DSS) for viability; higher = more toxic; extreme values may be limits of the assay; conditions: 72 h
[18] = tested on: A549-ACE2 infected with SARS-CoV-2; assay: SARS-CoV-2 infection rate relative to DMSO; higher = more infection; conditions: 24 h
A549-ACE2 [19] = assay: drug-induced phospholipidosis relative to tamoxifen; higher = more phospholipidosis
Vero E6 [20] = assay: relative viability EC50 (midpoint between 100% and the lowest measured viability); higher = less toxic; conditions: 72 h

Cc1ccc(NC(=O)c2ccc(CN3CCN(C)CC3)cc2)cc1Nc1nccc(-c2cccnc2)n1 [imatinib]
Conditions	drug sensitivity score
Calu-3 [2]	0.1
HepG2 [4]	2.4
U2OS [1]	0
Vero E6 [3]	0

Conditions	morphology score, 0.3 µM	morphology score, 3 µM	morphology score, 10 µM	morphology score, 30 µM	phospholipidosis EC50, 24 h [µM]	phospholipidosis EC50, 48 h [µM]	phospholipidosis EC50, 72 h [µM]
A549-ACE2 [6]	–	–	–	–	6.11	13	10
[5]	0.28	0.55	0.73	-0.03	–	–	–

O=C(CCCN1CCC2(CC1)C(=O)N(Cc1cccc(F)c1)CN2c1ccccc1)c1ccc(F)cc1 [3'-fluorobenzylspiperone]
Conditions	drug sensitivity score	relative viability EC50 [µM]
Caco-2 [9]	–	3.28
Caco-2 [17]	3.9	–
Calu-3 [2]	3.8	–
Calu-3 [8]	–	3.25
HepG2 [4]	2.7	–
HepG2 [10]	–	3.46
U2OS [1]	4.1	–
U2OS [7]	–	3.15
Vero E6 [3]	2.6	–

Conditions	SARS-CoV-2 infection rate [%]	cell count [%]	cell viability [%]	morphology score	phospholipidosis EC50 [µM]
A549-ACE2 [6], 48 h	–	–	–	–	2.95
Caco-2 [13], 1 nM	–	–	90.9	–	–
Caco-2 [13], 10 nM	–	–	91.1	–	–
Caco-2 [13], 100 nM	–	–	100	–	–
Caco-2 [13], 1000 nM	–	–	101	–	–
Caco-2 [13], 10000 nM	–	–	27.9	–	–
Calu-3 [12], 1 nM	–	–	101	–	–
Calu-3 [12], 10 nM	–	–	106	–	–
Calu-3 [12], 100 nM	–	–	90.6	–	–
Calu-3 [12], 1000 nM	–	–	101	–	–
Calu-3 [12], 10000 nM	–	–	29.7	–	–
HepG2 [15], 1 nM	–	–	94.6	–	–
HepG2 [15], 10 nM	–	–	98.1	–	–
HepG2 [15], 100 nM	–	–	95.9	–	–
HepG2 [15], 1000 nM	–	–	103	–	–
HepG2 [15], 10000 nM	–	–	44.4	–	–
U2OS [11], 1 nM	–	–	96.5	–	–
U2OS [11], 10 nM	–	–	102	–	–
U2OS [11], 100 nM	–	–	98.7	–	–
U2OS [11], 1000 nM	–	–	99.8	–	–
U2OS [11], 10000 nM	–	–	26.4	–	–
Vero E6 [14], 1 nM	–	–	103	–	–
Vero E6 [14], 10 nM	–	–	97.2	–	–
Vero E6 [14], 100 nM	–	–	93	–	–
Vero E6 [14], 1000 nM	–	–	95.1	–	–
Vero E6 [14], 10000 nM	–	–	62.9	–	–
[5], 0.1 µM	–	–	–	-0.13	–
[5], 0.3 µM	–	–	–	0.27	–
[5], 1 µM	–	–	–	0.46	–
[5], 3 µM	–	–	–	0.54	–
[16], 0.1 µM	–	97	–	–	–
[16], 0.3 µM	–	102	–	–	–
[16], 1 µM	–	109	–	–	–
[16], 3 µM	–	107	–	–	–
[18], 0.1 µM	99	–	–	–	–
[18], 0.3 µM	90	–	–	–	–
[18], 1 µM	87	–	–	–	–
[18], 3 µM	17	–	–	–	–

drug-induced phospholipidosis [%], A549-ACE2 [19]
Conditions	0.3 µM	0.833333 µM	3.33333 µM	6.66667 µM	10 µM	30 µM
24 h	3.51	-1.7	29	48.2	-29.1	-34.9
48 h	4.33	1.23	42.2	60	–	–
72 h	4.04	1.05	39.3	48.1	–	–

OCc1cc(C(O)CNCCCCCCOCCCCc2ccccc2)ccc1O (configuration not stated) [salmeterol]
Conditions	drug sensitivity score	relative viability EC50 [µM]
Caco-2 [9]	–	> 10
Caco-2 [17]	0.1	–
Calu-3 [2]	0	–
Calu-3 [8]	–	> 10
HepG2 [4]	1	–
U2OS [1]	0	–
U2OS [7]	–	> 10
Vero E6 [3]	0	–
Vero E6 [20]	–	> 10

Conditions	SARS-CoV-2 infection rate [%]	cell count [%]	cell viability [%]	morphology score	phospholipidosis EC50 [µM]
A549-ACE2 [6], 24 h	–	–	–	–	5.09
A549-ACE2 [6], 48 h	–	–	–	–	7.38
A549-ACE2 [6], 72 h	–	–	–	–	8.86
Caco-2 [13], 1 nM	–	–	97.4	–	–
Caco-2 [13], 10 nM	–	–	96.6	–	–
Caco-2 [13], 100 nM	–	–	95.1	–	–
Caco-2 [13], 1000 nM	–	–	92.7	–	–
Caco-2 [13], 10000 nM	–	–	86.6	–	–
Calu-3 [12], 1 nM	–	–	112	–	–
Calu-3 [12], 10 nM	–	–	97.4	–	–
Calu-3 [12], 100 nM	–	–	100	–	–
Calu-3 [12], 1000 nM	–	–	99	–	–
Calu-3 [12], 10000 nM	–	–	98.9	–	–
HepG2 [15], 1 nM	–	–	107	–	–
HepG2 [15], 10 nM	–	–	107	–	–
HepG2 [15], 100 nM	–	–	94	–	–
HepG2 [15], 1000 nM	–	–	105	–	–
HepG2 [15], 10000 nM	–	–	70.8	–	–
U2OS [11], 1 nM	–	–	103	–	–
U2OS [11], 10 nM	–	–	97.7	–	–
U2OS [11], 100 nM	–	–	99.9	–	–
U2OS [11], 1000 nM	–	–	99.3	–	–
U2OS [11], 10000 nM	–	–	95.2	–	–
Vero E6 [14], 1 nM	–	–	101	–	–
Vero E6 [14], 10 nM	–	–	106	–	–
Vero E6 [14], 100 nM	–	–	101	–	–
Vero E6 [14], 1000 nM	–	–	107	–	–
Vero E6 [14], 10000 nM	–	–	97.5	–	–
[5], 0.3 µM	–	–	–	-0.02	–
[5], 3 µM	–	–	–	0.15	–
[5], 10 µM	–	–	–	0.89	–
[5], 30 µM	–	–	–	0.58	–
[16], 0.3 µM	–	101	–	–	–
[16], 3 µM	–	108	–	–	–
[16], 10 µM	–	121	–	–	–
[16], 30 µM	–	102	–	–	–
[18], 0.3 µM	107	–	–	–	–
[18], 3 µM	91	–	–	–	–
[18], 10 µM	19	–	–	–	–
[18], 30 µM	17	–	–	–	–

drug-induced phospholipidosis [%], A549-ACE2 [19]
Conditions	0.3 µM	0.833333 µM	3.33333 µM	6.66667 µM	10 µM	30 µM
24 h	-0.12	-0.14	9.06	65.1	85.7	80.3
48 h	2.35	2.68	8.06	52.9	83.5	117
72 h	3.27	1.57	6.45	37.9	80.7	130

CCN(CC)C(=S)S [ditiocarb-sodium-trihydrate]
Conditions	drug sensitivity score	relative viability EC50 [µM]
Caco-2 [9]	–	2.11
Caco-2 [17]	6.4	–
Calu-3 [2]	2.8	–
HepG2 [4]	3	–
HepG2 [10]	–	3.73
U2OS [1]	0.2	–
U2OS [7]	–	> 10
Vero E6 [3]	0	–
Vero E6 [20]	–	> 10

Conditions	SARS-CoV-2 infection rate, [18] [%]	cell count, [16] [%]	cell viability, Caco-2 [13] [%]	cell viability, Calu-3 [12] [%]	cell viability, HepG2 [15] [%]	cell viability, U2OS [11] [%]	cell viability, Vero E6 [14] [%]	morphology score, [5]
1 nM	–	–	94.1	105	97.5	101	92.8	–
10 nM	–	–	97	93.1	97.9	98.9	102	–
100 nM	–	–	89.3	108	100	101	96.3	–
0.3 µM	108	97	–	–	–	–	–	-0.22
1000 nM	–	–	89.2	89	108	101	103	–
3 µM	98	102	–	–	–	–	–	0.08
10000 nM	–	–	16.7	70.2	35.6	85.5	99	–
10 µM	95	107	–	–	–	–	–	0.19
30 µM	62	106	–	–	–	–	–	0.61

drug-induced phospholipidosis [%], A549-ACE2 [19]
Conditions	0.3 µM	0.833333 µM	3.33333 µM	6.66667 µM	10 µM
24 h	0.51	1.07	-2.14	-0.7	-0.24
48 h	2.4	1.02	0.85	0.97	0.53
72 h	3.87	-0.805	0.971	1.39	0.827

CNC(=O)c1cc(Oc2ccc(NC(=O)Nc3cc(C(C)(C)C)nn3-c3ccc4ncccc4c3)c(F)c2)ccn1 [rebastinib]
Conditions	drug sensitivity score	relative viability EC50 [µM]
Caco-2 [9]	–	3.94
Caco-2 [17]	3.1	–
Calu-3 [2]	4.6	–
Calu-3 [8]	–	1.94
HepG2 [4]	13.3	–
HepG2 [10]	–	0.638
U2OS [1]	4.4	–
U2OS [7]	–	3.62
Vero E6 [3]	4.3	–
Vero E6 [20]	–	3.74

Conditions	SARS-CoV-2 infection rate, [18] [%]	cell count, [16] [%]	cell viability, Caco-2 [13] [%]	cell viability, Calu-3 [12] [%]	cell viability, HepG2 [15] [%]	cell viability, U2OS [11] [%]	cell viability, Vero E6 [14] [%]	morphology score, [5]
1 nM	–	–	98.4	100	104	97.9	98.2	–
10 nM	–	–	89.9	97.5	102	96.4	96.8	–
100 nM	–	–	95.4	105	108	97	102	–
0.1 µM	97	104	–	–	–	–	–	0.31
0.3 µM	92	103	–	–	–	–	–	0.24
1000 nM	–	–	114	90.8	28.6	108	112	–
1 µM	92	102	–	–	–	–	–	0.22
3 µM	95	96	–	–	–	–	–	0.12
10000 nM	–	–	30	42.6	6.1	9.6	9.9	–

drug-induced phospholipidosis [%], A549-ACE2 [19]
Conditions	0.3 µM	0.833333 µM	3.33333 µM	6.66667 µM	10 µM
24 h	-0.9	-2.36	-1.54	-1.91	-2.66
48 h	-0.69	-2.5	-1.43	-0.4	0.77
72 h	0.586	-3.51	-2.2	1.53	5.87
